Data as given in article PMC3914206.

Columns and labels:
Type in all cases: binding
[1] = biological target: T1, panel of 442 kinases (Homo sapiens, UniProt O94921); conditions: Compound Concentration 10 µM
T1 construct: purchased KINOMEscan
Text: (§1) We assessed the selectivity of members of this scaffold using the KINOMEscan methodology across a near comprehensive panel of 442 kinases [[18,27]].

[2] = biological target: T2, panel of 442 kinases (Homo sapiens, UniProt Q14164); conditions: Compound Concentration 10 µM
T2 construct: purchased KINOMEscan
T2 sequence (Q14164 1-716): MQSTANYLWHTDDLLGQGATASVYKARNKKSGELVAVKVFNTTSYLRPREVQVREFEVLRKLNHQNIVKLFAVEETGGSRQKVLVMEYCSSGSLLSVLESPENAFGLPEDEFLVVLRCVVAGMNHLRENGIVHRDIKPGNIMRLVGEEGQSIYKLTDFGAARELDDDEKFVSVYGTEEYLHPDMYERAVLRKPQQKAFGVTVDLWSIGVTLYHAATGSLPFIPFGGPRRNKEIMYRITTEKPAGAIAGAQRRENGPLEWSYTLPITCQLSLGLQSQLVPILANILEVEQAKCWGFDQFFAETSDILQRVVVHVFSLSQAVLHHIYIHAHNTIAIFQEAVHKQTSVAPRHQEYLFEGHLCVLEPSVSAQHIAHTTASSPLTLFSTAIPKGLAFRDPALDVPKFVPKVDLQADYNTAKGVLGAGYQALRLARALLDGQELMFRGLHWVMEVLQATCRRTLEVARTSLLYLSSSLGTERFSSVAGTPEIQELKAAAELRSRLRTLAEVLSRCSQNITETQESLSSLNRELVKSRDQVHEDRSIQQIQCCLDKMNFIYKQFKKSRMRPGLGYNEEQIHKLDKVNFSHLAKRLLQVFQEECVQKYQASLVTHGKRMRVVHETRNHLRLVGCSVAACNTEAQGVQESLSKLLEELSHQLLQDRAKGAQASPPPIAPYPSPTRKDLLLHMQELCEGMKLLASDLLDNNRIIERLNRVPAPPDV
Text: as §1

[3] = biological target: T3, panel of 442 kinases (Homo sapiens, UniProt O00506); conditions: kinase YSK1; compound concentration 10 µM
T3 construct: purchased KINOMEscan
T3 sequence (O00506 whole entry): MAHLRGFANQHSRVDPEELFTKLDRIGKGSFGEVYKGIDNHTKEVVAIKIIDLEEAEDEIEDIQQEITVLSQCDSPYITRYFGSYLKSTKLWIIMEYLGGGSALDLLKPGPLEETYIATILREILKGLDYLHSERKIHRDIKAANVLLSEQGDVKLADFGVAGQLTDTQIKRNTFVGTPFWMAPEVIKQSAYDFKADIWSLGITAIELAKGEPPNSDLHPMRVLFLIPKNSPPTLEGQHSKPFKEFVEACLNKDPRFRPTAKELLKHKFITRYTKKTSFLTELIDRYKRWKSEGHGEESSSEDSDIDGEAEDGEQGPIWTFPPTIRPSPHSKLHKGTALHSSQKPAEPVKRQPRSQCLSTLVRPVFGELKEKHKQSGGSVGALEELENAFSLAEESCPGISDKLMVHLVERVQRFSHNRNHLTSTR
Text: as §1

T1 sequence (O94921 whole entry): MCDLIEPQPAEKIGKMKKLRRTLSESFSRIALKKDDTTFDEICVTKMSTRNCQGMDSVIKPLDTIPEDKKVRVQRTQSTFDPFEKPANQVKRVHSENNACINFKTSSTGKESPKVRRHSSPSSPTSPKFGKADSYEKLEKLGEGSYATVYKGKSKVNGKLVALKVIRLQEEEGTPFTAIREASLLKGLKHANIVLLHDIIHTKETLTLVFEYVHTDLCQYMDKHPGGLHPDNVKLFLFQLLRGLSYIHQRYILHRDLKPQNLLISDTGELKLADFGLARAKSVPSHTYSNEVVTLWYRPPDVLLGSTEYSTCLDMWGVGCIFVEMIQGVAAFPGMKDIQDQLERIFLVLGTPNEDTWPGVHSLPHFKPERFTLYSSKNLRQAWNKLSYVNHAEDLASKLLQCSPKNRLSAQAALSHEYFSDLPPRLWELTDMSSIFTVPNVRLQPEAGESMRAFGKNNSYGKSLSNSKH

| SMILES | KINOMEscan: PFTK1 [1] | KINOMEscan: IKK-epsilon [2] | % Ctrl, YSK1 [3] [% Ctrl] |
| --- | --- | --- | --- |
| COc1cc(C(=O)N2CCC(N3CCN(C)CC3)CC2)ccc1Nc1ncc2c(n1)N(C)c1ccccc1C(=O)N2C [15 (LRRK2-IN-1)] | 81 | 96 | 68 |
| COc1cc(C(=O)N2CCC(N3CCN(C)CC3)CC2)ccc1Nc1ncc2c(n1)N1CCc3cccc(c31)C(=O)N2C [Compound 24] |  |  | 60 |
| COc1cc(C(=O)N2CCC(N3CCN(C)CC3)CC2)ccc1Nc1ncc2c(n1)N(C1CCCC1)c1ccccc1C(=O)N2C [Compound 25, 11-cyclopentyl-2-((2-methoxy-4-(4-(4-methylpiperazin-1-yl)piperidine-1-carbonyl)phenyl)amino)-5-methyl-5H-benzo[e]pyrimido[5,4-b][1,4]diazepin-6(11H)-one] | 100 | 100 | 66 |
| CCOc1cc(C(=O)N2CCC(N3CCN(C)CC3)CC2)ccc1Nc1ncc2c(n1)N(C1CCCC1)c1ccccc1C(=O)N2C [Compound 26] | 100 | 100 | 90 |
